For 14 compounds, IC50 results are on record in US20210070748A1, “INHIBITORS OF BRUTONS TYROSINE KINASE” (Pharmacyclics LLC, priority 2015, published 2021).

What all share (format): biochemical
The target in experiment [1] is T1, BTK-WT (Homo sapiens, UniProt Q06187).
T1 construct: purified from insect cells as a full-length construct containing an N-terminal 6X-His tag; His6 (N); made in house; host or cells: insect cells (baculovirus Sf21 in Method B)
The experiment in a line: Btk in vitro inhibitory activity (one of Method A TR-FRET, Method B electrophoretic mobility shift, Method C radiometric filter binding). To be noted: D-compounds panel data; read-out: IC50 BTK-WT. (In EMSA bound probe runs differently from free probe, usually more slowly.)

In experiment [2] the target is T2, JAK3 (Homo sapiens, UniProt P52333).
T2 sequence (P52333 1-1124): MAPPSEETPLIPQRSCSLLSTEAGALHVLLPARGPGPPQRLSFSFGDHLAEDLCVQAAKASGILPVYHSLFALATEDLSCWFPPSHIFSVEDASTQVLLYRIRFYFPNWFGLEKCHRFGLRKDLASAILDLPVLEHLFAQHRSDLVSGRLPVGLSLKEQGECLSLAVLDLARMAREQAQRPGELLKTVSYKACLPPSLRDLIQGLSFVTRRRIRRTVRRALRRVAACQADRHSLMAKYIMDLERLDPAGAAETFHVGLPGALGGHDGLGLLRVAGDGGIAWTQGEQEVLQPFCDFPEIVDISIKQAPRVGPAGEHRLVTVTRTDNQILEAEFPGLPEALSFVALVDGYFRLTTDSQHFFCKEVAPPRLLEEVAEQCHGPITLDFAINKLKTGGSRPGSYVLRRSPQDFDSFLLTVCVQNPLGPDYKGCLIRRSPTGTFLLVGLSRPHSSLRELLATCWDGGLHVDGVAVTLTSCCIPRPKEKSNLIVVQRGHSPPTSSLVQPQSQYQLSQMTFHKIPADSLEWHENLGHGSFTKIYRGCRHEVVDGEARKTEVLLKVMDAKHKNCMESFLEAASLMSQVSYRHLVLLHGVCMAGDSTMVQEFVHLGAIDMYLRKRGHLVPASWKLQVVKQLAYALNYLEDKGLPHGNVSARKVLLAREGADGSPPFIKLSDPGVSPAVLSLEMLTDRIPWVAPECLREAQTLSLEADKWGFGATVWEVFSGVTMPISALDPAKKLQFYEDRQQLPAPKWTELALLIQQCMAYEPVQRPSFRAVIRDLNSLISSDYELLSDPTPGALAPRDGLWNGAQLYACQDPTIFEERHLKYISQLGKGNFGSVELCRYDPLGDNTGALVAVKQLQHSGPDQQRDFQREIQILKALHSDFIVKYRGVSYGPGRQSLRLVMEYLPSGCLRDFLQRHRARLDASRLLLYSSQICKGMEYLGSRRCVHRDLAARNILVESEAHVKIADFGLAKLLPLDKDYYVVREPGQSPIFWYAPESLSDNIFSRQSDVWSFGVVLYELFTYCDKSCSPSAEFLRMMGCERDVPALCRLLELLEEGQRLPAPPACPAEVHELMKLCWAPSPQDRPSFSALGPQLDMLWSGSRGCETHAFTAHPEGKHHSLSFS
The experiment is described as follows: Inhibition of a panel of kinases, in vitro HotSpot kinase assay: JAK3. The following applies: D-compounds panel data; 1 μM ATP; read-out: IC50 JAK3.

Experiment [3] concerns the target LCK (Homo sapiens, UniProt P06239). The experiment in a line: Inhibition of a panel of kinases, in vitro HotSpot kinase assay: LCK. To be noted: D-compounds panel data; 1 μM ATP; read-out: IC50 LCK.
Experiment [4] has as its target EGFR (Homo sapiens, UniProt P00533). The experiment is described as follows: Inhibition of a panel of kinases, in vitro HotSpot kinase assay: EGFR. To be noted: D-compounds panel data; 1 μM ATP. The procedure: The degree of inhibition of a panel of kinases is determined using the in vitro HotSpot kinase assay (purified enzymes, ^33P-ATP, an appropriate substrate and 1 μM ATP).

pIC50: −log10 of the molar value.

T1 sequence (Q06187 whole entry): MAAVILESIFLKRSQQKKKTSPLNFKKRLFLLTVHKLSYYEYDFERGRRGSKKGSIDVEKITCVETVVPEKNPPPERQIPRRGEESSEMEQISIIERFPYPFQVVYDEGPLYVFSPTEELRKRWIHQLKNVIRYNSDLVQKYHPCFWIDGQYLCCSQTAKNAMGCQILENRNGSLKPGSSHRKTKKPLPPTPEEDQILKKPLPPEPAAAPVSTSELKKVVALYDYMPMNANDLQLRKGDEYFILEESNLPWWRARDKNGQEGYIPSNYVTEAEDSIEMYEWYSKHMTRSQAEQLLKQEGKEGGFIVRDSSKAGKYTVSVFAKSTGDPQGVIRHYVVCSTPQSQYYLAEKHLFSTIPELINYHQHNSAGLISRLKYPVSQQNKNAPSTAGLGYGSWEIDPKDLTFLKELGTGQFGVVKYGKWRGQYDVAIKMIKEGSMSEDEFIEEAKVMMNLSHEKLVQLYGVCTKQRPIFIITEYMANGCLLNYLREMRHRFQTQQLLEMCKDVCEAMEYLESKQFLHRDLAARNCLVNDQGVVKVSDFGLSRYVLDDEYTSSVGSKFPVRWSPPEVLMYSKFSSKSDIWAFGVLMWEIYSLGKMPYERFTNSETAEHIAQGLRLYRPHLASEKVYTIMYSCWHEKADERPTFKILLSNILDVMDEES
EGFR, sequence (P00533 25-1210): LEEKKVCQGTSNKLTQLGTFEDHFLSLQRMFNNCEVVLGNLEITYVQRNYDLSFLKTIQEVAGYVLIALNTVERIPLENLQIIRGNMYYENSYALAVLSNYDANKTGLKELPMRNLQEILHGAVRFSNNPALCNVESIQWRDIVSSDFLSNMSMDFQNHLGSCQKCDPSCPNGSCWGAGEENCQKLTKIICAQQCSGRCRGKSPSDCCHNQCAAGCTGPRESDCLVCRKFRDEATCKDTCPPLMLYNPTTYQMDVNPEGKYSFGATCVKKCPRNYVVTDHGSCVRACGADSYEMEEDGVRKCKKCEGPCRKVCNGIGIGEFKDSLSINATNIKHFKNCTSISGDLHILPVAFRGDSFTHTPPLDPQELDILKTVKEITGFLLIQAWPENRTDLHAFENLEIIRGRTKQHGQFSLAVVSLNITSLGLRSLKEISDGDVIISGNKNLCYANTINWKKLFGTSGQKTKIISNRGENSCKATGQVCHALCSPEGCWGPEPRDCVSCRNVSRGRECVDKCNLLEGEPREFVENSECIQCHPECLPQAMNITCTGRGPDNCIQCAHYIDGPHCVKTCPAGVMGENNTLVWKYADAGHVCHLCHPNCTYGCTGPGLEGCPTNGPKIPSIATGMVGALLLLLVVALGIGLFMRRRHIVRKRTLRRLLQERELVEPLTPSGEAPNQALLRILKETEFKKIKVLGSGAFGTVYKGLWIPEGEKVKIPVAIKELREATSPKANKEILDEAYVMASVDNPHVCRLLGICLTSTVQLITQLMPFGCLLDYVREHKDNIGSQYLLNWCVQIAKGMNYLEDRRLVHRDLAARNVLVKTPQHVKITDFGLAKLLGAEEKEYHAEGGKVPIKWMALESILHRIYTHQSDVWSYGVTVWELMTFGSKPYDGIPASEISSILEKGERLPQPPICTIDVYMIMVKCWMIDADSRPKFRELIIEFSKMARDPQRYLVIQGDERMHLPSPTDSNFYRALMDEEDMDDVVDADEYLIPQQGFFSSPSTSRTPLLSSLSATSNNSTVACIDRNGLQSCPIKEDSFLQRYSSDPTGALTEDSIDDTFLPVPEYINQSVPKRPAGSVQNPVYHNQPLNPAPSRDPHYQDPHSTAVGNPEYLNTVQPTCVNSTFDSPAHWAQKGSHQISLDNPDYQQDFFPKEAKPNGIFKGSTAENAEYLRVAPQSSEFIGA
LCK, sequence (P06239 whole entry): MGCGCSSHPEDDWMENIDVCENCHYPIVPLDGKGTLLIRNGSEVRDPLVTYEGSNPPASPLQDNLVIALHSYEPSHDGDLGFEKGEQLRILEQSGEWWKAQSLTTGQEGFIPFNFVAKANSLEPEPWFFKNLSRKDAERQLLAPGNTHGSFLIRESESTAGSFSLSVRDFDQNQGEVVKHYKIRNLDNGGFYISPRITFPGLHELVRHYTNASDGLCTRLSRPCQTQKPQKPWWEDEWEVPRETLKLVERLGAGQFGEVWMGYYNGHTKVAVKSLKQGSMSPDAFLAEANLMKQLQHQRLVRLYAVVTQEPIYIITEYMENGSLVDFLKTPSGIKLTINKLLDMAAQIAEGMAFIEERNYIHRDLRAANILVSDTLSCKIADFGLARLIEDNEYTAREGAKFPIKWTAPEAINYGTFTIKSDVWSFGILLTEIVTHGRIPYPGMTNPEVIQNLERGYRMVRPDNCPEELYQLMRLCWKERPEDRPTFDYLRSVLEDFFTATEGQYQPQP

As for `C[C@@H]1[C@H](NC(=O)c2ccc(C3CC3)cc2F)CCCN1c1cnc(C(N)=O)c(Nc2ccc(N3CCOCC3)cc2)n1` [Example D-73, 5-[(2R,3R)-3-(4-cyclopropyl-2-fluorobenzamido)-2-methylpiperidin-1-yl]-3-{[4-(morpholin-4-yl)phenyl]amino}pyrazine-2-carboxamide], the pIC50 (in general, the negative decadic logarithm of the IC50, by convention in mol/L) in experiment [1] is not below 8.00; in experiment [2] it was less than 5.00; in experiment [3], 5.00 to 6.00; in experiment [4] it was 5.00 to 6.00.

With `CN(C)C(=O)N[C@H]1CCCN(c2cnc(C(N)=O)c(Nc3ccc(C4(C)CCN(C5CCCC5)CC4)cc3)n2)[C@H]1CO` [Example D-59, 3-{[4-(1-cyclopentyl-4-methylpiperidin-4-yl)phenyl]amino}-5-[(2R,3S)-3-[(dimethylcarbamoyl)amino]-2-(hydroxymethyl)piperidin-1-yl]pyrazine-2-carboxamide], the pIC50 in experiment [1] was 6.00 to 7.00; in experiment [2], less than 5.00; in experiment [3], 5.00 to 6.00; in experiment [4] it was 5.00 to 6.00.

Regarding `C[C@@H]1[C@H](NC(=O)c2ccc(C3CC3)cc2)CCCN1c1cnc(C(N)=O)c(Nc2cnn(CC3CCOCC3)c2)n1` [Example D-319, 5-[(2R,3R)-3-(4-cyclopropylbenzamido)-2-methylpiperidin-1-yl]-3-{[1-(oxan-4-ylmethyl)-1H-pyrazol-4-yl]amino}pyrazine-2-carboxamide], the pIC50 is not below 8.00 in experiment [1], less than 5.00 in experiment [2], 6.00 to 7.00 in experiment [3] and 5.00 to 6.00 in experiment [4].

Consider `C[C@@H]1[C@H](NC(=O)c2ccc(C3CC3)cc2F)CCCN1c1cnc(C(N)=O)c(Nc2cnn(C)c2)n1` [Example D-1, 5-[(2R,3R)-3-(4-cyclopropyl-2-fluorobenzamido)-2-methylpiperidin-1-yl]-3-[(1-methyl-1H-pyrazol-4-yl)amino]pyrazine-2-carboxamide], for which the pIC50 was not below 8.00 in experiment [1], 5.00 to 6.00 in experiment [2], 5.00 to 6.00 in experiment [3] and 5.00 to 6.00 in experiment [4].

As for `C[C@@H]1[C@H](N2CCN(C)C2=O)CCCN1c1cnc(C(N)=O)c(Nc2ccc(C3(C)CCN(C4CC4)CC3)cc2)n1` [Example D-38, 3-{[4-(1-cyclopropyl-4-methylpiperidin-4-yl)phenyl]amino}-5-[(2R,3R)-2-methyl-3-(3-methyl-2-oxoimidazolidin-1-yl)piperidin-1-yl]pyrazine-2-carboxamide], the pIC50 was not below 8.00 in experiment [1], 7.00 to 8.00 in experiment [2], 7.00 to 8.00 in experiment [3] and 6.00 to 7.00 in experiment [4].

Consider `Cn1cc(Nc2nc(N3CC[C@@H](O)[C@H](NC(=O)c4ccc(C5CC5)cc4)C3)cnc2C(N)=O)cn1` (racemic) [Example D-26, (racemic)-trans-5-[3-(4-cyclopropylbenzamido)-4-hydroxypiperidin-1-yl]-3-[(1-methyl-1H-pyrazol-4-yl)amino]pyrazine-2-carboxamide], for which the negative logarithm of the IC50 (pIC50) was 7.00 to 8.00 in experiment [1], less than 5.00 in experiment [2], 5.00 to 6.00 in experiment [3] and less than 5.00 in experiment [4].

As to `C[C@@H]1[C@H](NC(=O)c2ccc(C3CC3)cc2F)CCCN1c1cnc(C(N)=O)c(Nc2ccc(N3CCN(C)CC3)c(F)c2)n1` [Example D-82, 5-[(2R,3R)-3-(4-cyclopropyl-2-fluorobenzamido)-2-methylpiperidin-1-yl]-3-{[3-fluoro-4-(4-methylpiperazin-1-yl)phenyl]amino}pyrazine-2-carboxamide], the pIC50 in experiment [1] is not below 8.00; in experiment [2] it was 5.00 to 6.00; in experiment [3], 7.00 to 8.00; in experiment [4], 6.00 to 7.00.

For the compound `CN1CCN(C(=O)c2ccc(Nc3nc(N[C@H]4CC[C@H](NC(=O)c5ccc(C6CC6)cc5F)CC4)cnc3C(N)=O)cc2)CC1` [Example D-70, 3-{[4-(4-methylpiperazine-1-carbonyl)phenyl]amino}-5-{[(1 r,4r)-4-(4-cyclopropyl-2-fluorobenzamido)cyclohexyl]amino}pyrazine-2-carboxamide], the negative-log IC50 (pIC50) in experiment [1] was 7.00 to 8.00; in experiment [2] it was 6.00 to 7.00; in experiment [3], 6.00 to 7.00; in experiment [4] it was 6.00 to 7.00.

Consider `C[C@@H]1[C@H](NC(=O)c2ccc(C3CC3)cc2)CCCN1c1cnc(C(N)=O)c(Nc2ccc(N3CCC(C(=O)N(C)C)CC3)cc2)n1` [Example D-320, 5-[(2R,3R)-3-(4-cyclopropylbenzamido)-2-methylpiperidin-1-yl]-3-({4-[4-(dimethylcarbamoyl)piperidin-1-yl]phenyl}amino)pyrazine-2-carboxamide], for which the negative-log IC50 (pIC50) in experiment [1] was not below 8.00; in experiment [2], 5.00 to 6.00; in experiment [3], 7.00 to 8.00; in experiment [4] it was 6.00 to 7.00.

With `CN(C)C(=O)N[C@H]1CCCN(c2cnc(C(N)=O)c(Nc3ccc(C4(C)CCN(C5CCCC5)CC4)cc3)n2)[C@@H]1CO` [Example D-61, 3-{[4-(1-cyclopentyl-4-methylpiperidin-4-yl)phenyl]amino}-5-[(2S,3S)-3-[(dimethylcarbamoyl)amino]-2-(hydroxymethyl)piperidin-1-yl]pyrazine-2-carboxamide], the pIC50 in experiment [1] was 6.00 to 7.00; in experiment [2] it was less than 5.00; in experiment [3], 5.00 to 6.00; in experiment [4] it was less than 5.00.

As to `CN(C)C(=O)N1CC[C@@H]2[C@H]1CCCN2c1cnc(C(N)=O)c(Nc2cnn(C)c2)n1` (racemic) [Example D-50, (racemic)-cis-5-[1-(dimethylcarbamoyl)-octahydro-1H-pyrrolo[3,2-b]pyridin-4-yl]-3-[(1-methyl-1H-pyrazol-4-yl)amino]pyrazine-2-carboxamide], the pIC50 in experiment [1] is 7.00 to 8.00; in experiment [2], 5.00 to 6.00; in experiment [3] it was 5.00 to 6.00; in experiment [4] it was less than 5.00.

As for `C[C@@H]1C[C@@H](NC(=O)c2ccc(C3CC3)cc2)CN(c2cnc(C(N)=O)c(Nc3cnn(C)c3)n2)C1` [Example D-31, 5-[(3R,5R)-3-(4-cyclopropylbenzamido)-5-methylpiperidin-1-yl]-3-[(1-methyl-1H-pyrazol-4-yl)amino]pyrazine-2-carboxamide], the pIC50 in experiment [1] is 7.00 to 8.00; in experiment [2], 5.00 to 6.00; in experiment [3] it was 5.00 to 6.00; in experiment [4] it was less than 5.00.

With `Cc1cc(Nc2nc(N3C[C@H](NC(=O)N(C)C)CC[C@H]3C)cnc2C(N)=O)sn1` [Example D-77, 5-[(2R,5R)-5-[(dimethylcarbamoyl)amino]-2-methylpiperidin-1-yl]-3-[(3-methyl-1,2-thiazol-5-yl)amino]pyrazine-2-carboxamide], the negative logarithm of the IC50 (pIC50) in experiment [1] was 6.00 to 7.00; in experiment [2], 5.00 to 6.00; in experiment [3] it was 5.00 to 6.00; in experiment [4] it was 5.00 to 6.00.

On to `Cn1cc(Nc2nc(N3CCC[C@H]4[C@@H]3CCCN4C(=O)c3ccc(C4CC4)cc3)cnc2C(N)=O)cn1` [Example D-47, 5-[(4aS,8aS)-5-(4-cyclopropylbenzoyl)-decahydro-1,5-naphthyridin-1-yl]-3-[(1-methyl-1H-pyrazol-4-yl)amino]pyrazine-2-carboxamide], for which the pIC50 in experiment [1] is 5.00 to 6.00; in experiment [2], less than 5.00; in experiment [3], less than 5.00; in experiment [4], less than 5.00.
